These results are taken from US9120756B2, “Substituted phenylureas and phenylamides as vanilloid receptor ligands” (Gruenenthal GmbH, priority 2009, dated 2015).

Common to all, as to format: cell-based
The target in assay [1] is T1, hVR1 (Homo sapiens (Human), UniProt Q8NER1). Briefly: FLIPR assay human VR1, 45° C. stimulus. Set-up: key to IC50 (human being) 45° C. column: result in words (AG): AG=agonist; pAG=partial agonist; NE=no effect. An excerpt:
The agonistic or antagonistic effect of the substances to be tested on the vanilloid receptor 1 (VR1) can also be determined using the following assay. In this assay, the influx of Ca^2+ through the channel is quantified with the aid of a Ca^2+-sensitive dye (type Fluo-4, Molecular Probes Europe BV, Leiden, the Netherlands) in a fluorescent imaging plate reader (FLIPR, Molecular Devices, Sunnyvale, USA).
Chinese hamster ovary cells (CHO K1 cells, European Collection of Cell Cultures (ECACC) United Kingdom) are stably transfected with the VR1 gene. For functional testing, these cells are plated out on poly-D-lysine-coated black 96-well plates having a clear base (BD Biosciences, Heidelberg, Germany) at a density of 25,000 cells/well. The cells are incubated overnight at 37° C. and 5% CO2 in a culture medium (Ham's F12 nutrient mixture, 10% by volume of FCS (foetal calf serum), 18 μg/ml of L-proline). The next day the cells are incubated with Fluo-4 (Fluo-4 2 μM, 0.01% by volume of Pluronic F127, Molecular Probes in HBSS (Hank's buffered saline solution), Gibco Invitrogen GmbH, Karlsruhe, Germany) for 30 minutes at 37° C. Subsequently, the plates are washed three times with HBSS buffer and after further incubation for 15 minutes at RT used for Ca^2+ measurement in a FLIPR assay. The Ca^2+-dependent fluorescence is measured before and after the addition of the substances to be tested (λex wavelength=488 nm, λem=540 nm). Quantification is carried out by measuring the highest fluorescence intensity (FC, fluorescence counts) over time.
The FLIPR protocol consists of 2 substance additions. […]
Desensitising agonists and antagonists led to suppression of the Ca^2+ influx.
Ki values for the test substances were obtained by conversion by means of the Cheng-Prusoff equation (Cheng, Prusoff; Biochem. Pharmacol. 22, 3099-3108, 1973).

Assay [2] concerns the target T1, hVR1. Briefly: FLIPR assay hVR1, after pH stimulus. Set-up: key to IC50 (human being) hVR1 pH: result in words (NE / AG): AG=agonist; pAG=partial agonist; NE=no effect.
Assay [3] concerns the target T1, hVR1. Nature of the assay: FLIPR Ca2+ influx assay on CHO K1 cells transfected with the VR1 gene, capsaicin stimulus (method II). Set-up: key to Ki (human being) Cap: result in words (NE / AG): AG=agonist; pAG=partial agonist; NE=no effect.
Assay [4] deals with T1, hVR1. Briefly: FLIPR assay human VR1, NADA (N-arachidonoyl dopamine) stimulus. Set-up: key: AG=agonist; pAG=partial agonist; NE=no effect. The procedure: In this assay, the influx of Ca^2+ through the channel is quantified with the aid of a Ca^2+-sensitive dye (type Fluo-4, Molecular Probes Europe BV, Leiden, the Netherlands) in a fluorescent imaging plate reader (FLIPR, Molecular Devices, Sunnyvale, USA). Chinese hamster ovary cells (CHO K1 cells, European Collection of Cell Cultures (ECACC) United Kingdom) are stably transfected with the VR1 gene. For functional testing, these cells are plated out on poly-D-lysine-coated black 96-well plates having a clear base (BD Biosciences, Heidelberg, Germany) at a density of 25,000 cells/well. […] Subsequently, the plates are washed three times with HBSS buffer and after further incubation for 15 minutes at RT used for Ca^2+ measurement in a FLIPR assay. […] Quantification is carried out by measuring the highest fluorescence intensity (FC, fluorescence counts) over time. The FLIPR protocol consists of 2 substance additions. […] Desensitising agonists and antagonists led to suppression of the Ca^2+ influx. […] Ki values for the test substances were obtained by conversion by means of the Cheng-Prusoff equation (Cheng, Prusoff; Biochem. Pharmacol. 22, 3099-3108, 1973).

In assay [5] the target is rat-species vanilloid receptor 1 (VR1/TRPV1) (Rattus norvegicus (Rat), UniProt O35433). Nature of the assay: FLIPR Ca2+ influx assay on rat dorsal root ganglia cells, capsaicin stimulus (method I). The note with it: read-out: Ki (rat) Cap column: inhibition (as a percentage) @ 1 μM, capsaicin, inhibition determined at 1 μM. The procedure: The agonistic or antagonistic effect of the substances to be tested on the rat-species vanilloid receptor 1 (VR1/TRPV1) can be determined using the following assay. In this assay, the influx of Ca^2+ through the receptor channel is quantified with the aid of a Ca^2+-sensitive dye (type Fluo-4, Molecular Probes Europe BV, Leiden, the Netherlands) in a fluorescent imaging plate reader (FLIPR, Molecular Devices, Sunnyvale, USA).
Complete medium: 50 ml HAMS F12 nutrient mixture (Gibco Invitrogen GmbH, Karlsruhe, Germany) with
10% by volume of FCS (foetal calf serum, Gibco Invitrogen GmbH, Karlsruhe, Germany, heat-inactivated);
2 mM L-glutamine (Sigma, Munich, Germany);
1% by weight of AA solution (antibiotic/antimyotic solution, PAA, Pasching, Austria) and 25 ng/ml NGF medium (2.5 S, Gibco Invitrogen GmbH, Karlsruhe, Germany)
Cell culture plate: Poly-D-lysine-coated, black 96-well plates having a clear base (96-well black/clear plate, BD Biosciences, Heidelberg, Germany) are additionally coated with laminin (Gibco Invitrogen GmbH, Karlsruhe, Germany), the laminin being diluted with PBS (Ca—Mg-free PBS, Gibco Invitrogen GmbH, Karlsruhe, Germany) to a concentration of 100 μg/ml. Aliquots having a laminin concentration of 100 μg/ml are removed and stored at −20° C. The aliquots are diluted with PBS in a ratio of 1:10 to 10 μg/ml of laminin and respectively 50 μL of the solution are pipetted into a recess in the cell culture plate. The cell culture plates are incubated for at least two hours at 37° C., the excess solution is removed by suction and the recesses are each washed twice with PBS. The coated cell culture plates are stored with excess PBS which is not removed until just before the feeding of the cells.
The vertebral column is removed from decapitated rats and placed immediately into cold HBSS buffer (Hank's buffered saline solution, Gibco Invitrogen GmbH, Karlsruhe, Germany), i.e. buffer located in an ice bath, mixed with 1% by volume (percent by volume) of an AA solution (antibiotic/antimyotic solution, PAA, Pasching, Austria). The vertebral column is cut longitudinally and removed together with fasciae from the vertebral canal. Subsequently, the dorsal root ganglia (DRG) are removed and again stored in cold HBSS buffer mixed with 1% by volume of an AA solution. The DRG, from which all blood remnants and spinal nerves have been removed, are transferred in each case to 500 μL of cold type 2 collagenase (PAA, Pasching, Austria) and incubated for 35 minutes at 37° C. After the addition of 2.5% by volume of trypsin (PAA, Pasching, Austria), incubation is continued for 10 minutes at 37° C. After complete incubation, the enzyme solution is carefully pipetted off and 500 μL of complete medium are added to each of the remaining DRG. […] The contents of each Falcon tube are respectively filtered through a 70 μm Falcon filter element and centrifuged for 10 minutes at 1,200 rpm and RT. The resulting pellet is respectively taken up in 250 μL of complete medium and the cell count is determined.
The number of cells in the suspension is set to 3×10^5 per ml and 150 μL of this suspension are in each case introduced into a recess in the cell culture plates coated as described hereinbefore. […] Subsequently, the cells are loaded with 2 μM of Fluo-4 and 0.01% by volume of Pluronic F127 (Molecular Probes Europe BV, Leiden, the Netherlands) in HBSS buffer (Hank's buffered saline solution, Gibco Invitrogen GmbH, Karlsruhe, Germany) for 30 min at 37° C., washed 3 times with HBSS buffer and after further incubation for 15 minutes at RT used for Ca^2+ measurement in a FLIPR assay. The Ca^2+-dependent fluorescence is in this case measured before and after the addition of substances (λex=488 nm, λem=540 nm). Quantification is carried out by measuring the highest fluorescence intensity (FC, fluorescence counts) over time.
The FLIPR protocol consists of 2 substance additions.

SMILES strings stand for the structures.

T1 sequence (Q8NER1 whole entry): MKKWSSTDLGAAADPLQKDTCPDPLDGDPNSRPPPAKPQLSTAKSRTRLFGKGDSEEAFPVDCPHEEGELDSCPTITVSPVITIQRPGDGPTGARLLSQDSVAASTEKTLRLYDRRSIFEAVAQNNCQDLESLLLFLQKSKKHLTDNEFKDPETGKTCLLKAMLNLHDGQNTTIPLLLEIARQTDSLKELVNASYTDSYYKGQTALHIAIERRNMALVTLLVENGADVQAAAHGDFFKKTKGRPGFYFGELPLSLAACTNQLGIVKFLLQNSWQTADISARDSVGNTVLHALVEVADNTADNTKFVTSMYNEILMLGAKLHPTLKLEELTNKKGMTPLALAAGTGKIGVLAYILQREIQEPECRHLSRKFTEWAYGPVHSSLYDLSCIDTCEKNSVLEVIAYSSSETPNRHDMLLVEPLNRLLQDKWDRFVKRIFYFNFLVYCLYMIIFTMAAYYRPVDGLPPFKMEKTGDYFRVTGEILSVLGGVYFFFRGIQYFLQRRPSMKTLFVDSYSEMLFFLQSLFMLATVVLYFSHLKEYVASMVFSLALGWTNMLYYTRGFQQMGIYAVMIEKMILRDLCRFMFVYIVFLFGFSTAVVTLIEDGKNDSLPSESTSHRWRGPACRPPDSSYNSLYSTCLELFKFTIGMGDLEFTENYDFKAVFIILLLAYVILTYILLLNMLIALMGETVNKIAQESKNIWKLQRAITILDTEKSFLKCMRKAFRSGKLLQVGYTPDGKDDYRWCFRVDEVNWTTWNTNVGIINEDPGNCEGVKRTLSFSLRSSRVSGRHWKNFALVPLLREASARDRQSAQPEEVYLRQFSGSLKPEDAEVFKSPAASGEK
Sequence of rat-species vanilloid receptor 1 (VR1/TRPV1) (O35433 whole entry): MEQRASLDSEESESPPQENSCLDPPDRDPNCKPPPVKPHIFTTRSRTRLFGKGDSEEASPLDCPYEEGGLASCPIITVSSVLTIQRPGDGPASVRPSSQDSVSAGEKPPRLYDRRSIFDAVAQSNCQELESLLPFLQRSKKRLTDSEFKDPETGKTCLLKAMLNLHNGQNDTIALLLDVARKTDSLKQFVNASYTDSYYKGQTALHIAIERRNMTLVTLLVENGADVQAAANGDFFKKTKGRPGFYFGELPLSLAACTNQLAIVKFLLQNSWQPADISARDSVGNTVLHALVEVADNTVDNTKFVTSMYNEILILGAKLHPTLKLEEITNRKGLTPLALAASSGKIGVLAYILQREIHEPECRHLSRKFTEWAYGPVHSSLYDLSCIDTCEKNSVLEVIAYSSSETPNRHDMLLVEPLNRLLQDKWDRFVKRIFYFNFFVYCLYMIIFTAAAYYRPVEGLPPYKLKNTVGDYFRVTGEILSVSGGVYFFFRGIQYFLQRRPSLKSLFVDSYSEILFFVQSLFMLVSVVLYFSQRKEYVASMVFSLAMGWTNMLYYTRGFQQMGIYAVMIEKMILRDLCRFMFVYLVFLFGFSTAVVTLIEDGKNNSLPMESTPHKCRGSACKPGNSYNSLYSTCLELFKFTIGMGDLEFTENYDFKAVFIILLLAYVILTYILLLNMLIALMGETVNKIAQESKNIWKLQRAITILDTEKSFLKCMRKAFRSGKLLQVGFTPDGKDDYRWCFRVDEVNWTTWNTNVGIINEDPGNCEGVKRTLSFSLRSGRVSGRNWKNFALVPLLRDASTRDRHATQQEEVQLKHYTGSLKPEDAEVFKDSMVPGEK

As for `CC(C(=O)NCc1cc(C(C)(C)C)nn1-c1cccc(Cl)c1)c1ccc(S(=O)(=O)N(C)C)c(F)c1` (centres unmarked) [Example 49, N-((3-tert-butyl-1-(3-chlorophenyl)-1H-pyrazol-5-yl)methyl)-2-(4-(N,N-dimethylsulphamoyl)-3-fluorophenyl)propanamide], the “IC50 (human being) 45° C. column: result in words (AG)” value on hVR1 [1] is given as “AG”. Moreover, on hVR1 [2], the “IC50 (human being) hVR1 pH: result in words (NE / AG)” value is given as “AG”. Moreover, at hVR1 [3] (capsaicin), the “Ki (human being) Cap: result in words (NE / AG)” value is “AG”. For the same molecule, the “Ki (human being) NADA column: result in words (AG)” value at hVR1 [4] was “AG”.

Turning to `CCCCCCn1nc(C(C)(C)C)cc1CNC(=O)C(C)c1ccc(NS(C)(=O)=O)c(F)c1` (centres unmarked) [Example 5, N-((3-tert-butyl-1-hexyl-1H-pyrazol-5-yl)methyl)-2-(3-fluoro-4-(methylsulphonamido)phenyl)propanamide], the half-inhibitory concentration (IC50) on hVR1 [1] (read-out: IC50 (human being) [nM], 45° C.) was 282 nM. The inhibition at 10 µM at hVR1 [2] (read-out: IC50 (human being) hVR1 pH: inhibition (as a percentage) @ 10 μM, inhibition determined at 10 μM) is 36%. For the same molecule, the inhibitory constant (Ki) on hVR1 [3] (capsaicin (Cap), read-out: Ki (human being) [nM] Cap) turned out to be 50.2 nM. Also, the inhibition at 1 µM in assay [5] was 76%.

In general, IC50 refers to the concentration that inhibits the measured activity by half. By inhibition is commonly meant the relative decrease from the control value, in per cent. One may read the Ki as a dissociation constant, usually derived from enzyme kinetics or from competition with a known ligand.
